Results: patent US20070032443A1, “Therapy for Alzheimer's disease” (priority 2005, published 2007)

Tested on: HEK293 cells
Experiment: Viability of HEK293 cells in culture with test compound
Format: cell-based, human
Design: key: ns: results are not shown due to poor viability of HEK293 cells in culture at the indicated compound concentration
Settings: 10^−3 dilution of working concentration of Table 4 (D 0.1 millimolar); 6 days of culture

## O=P(O)(O)C(O)(Cn1ccnc1)P(=O)(O)O [Compound D, zolendronic acid]
  Viability of HEK293 cells in culture: ns^2
